Test system: COLO 205 cells
Assay: Western blot of NOXA and PUMA protein expression after aripiprazole treatment
Type: cell-based
Details: 8 hours after treatment, Western blot (FIG. 1)
Description: To identify an effect of aripiprazole on the expression of NOXA and PUMA proteins in cancer cells, COLO 205 cells were treated with aripiprazole. Eight hours later, proteins were extracted from cells after washing with PBS, and a level of NOXA and PUMA expression was checked via Western blot.

O=C1CCc2ccc(OCCCCN3CCN(c4cccc(Cl)c4Cl)CC3)cc2N1 [aripiprazole]
expression of NOXA protein: increased | expression of PUMA protein: increased
